In US20100178243A1, “Novel method of stabilizing diagnostic and therapeutic compounds in a cationic carrier system” (MediGene AG, priority 2002, published 2010):
Each block holds one compound with its values, some of them ahead of it.

What was measured:
[1] = Diafiltration: retention of fluorescein dyes in liposome suspension (direct loading); format: physicochemical; details: for Conc. marker after diafiltration: 25 mM
Source text: Liposomes may be formed by the well-known film method, such as described in the literature.[1] Briefly, from the organic solution of the lipid, or the lipid plus the drug, the solvent is evaporated, and a thin film of lipid (or lipid plus drug) is formed at the inner wall of a flask. The thin molecular film is resuspended in an aqueous phase, which contains the dye, and which may contain further components such as buffers, ions, cryoprotectants, etc. A typical formulation consists of a suspension of 25 mM DOTAP/DOPC 1:1, which is resuspended by a 5 mM solution of the dye.
(§1) As an example, in table 1 the results from some experiments are given. For comparison as well a formulation with anionic lipids was performed. For the anionic liposomes, most of the dye is lost during diafiltration, while for the cationic liposomes a large molar fraction of the dye remains immobilized in the lioposme suspension. […] For the CF experiments a lower bulk concentration of the dye was selected, because in that case binding is so strong, that for higher concentrations the liposomes will be destabilized due to the sterical hindrance by the CF molecules. The fraction of dye which was found immobilized in the suspensions from cationic liposomes was much higher that for the (anionic) DOPG containing liposomes. A band shift (λ max) in the absorption spectrum was observed, which increased as AF<F<CF, indication increasing binding strength. On the contrary, for the DOPG liposomes, no shift of the absorption maximum occurred. This can be seen most clearly in FIG. 1, where the complete spectra for the free and the liposomal dyes are depicted.
Separation of low molecular compounds from the liposomal suspensions Diafiltration techniques were used to separate low molecular components from the liposomal suspensions. For the above described 15 mM DOTAP/DOPC 1:1 formulations with 5 mM dye in the aqueous phase, ca. 50% of the dye was retained in the liposome suspension for AF, and 60% was retained for F. With 0.5 mM of CF, virtually 100% of the dye was retained in the solution (the amount of released dye was monitored by UV-vis)spectroscopy.

[2] = UV-vis absorption maximum (band shift) of liposome-associated fluorescein dyes; format: physicochemical; details: 25 mM
Description: as §1, with “depicted. All stages of formulation are monitored by HPLC analysis (lipid and drug) and by UV-vis spectroscopy. In HPLC analysis a slight loss of material after extrusion may be observed. UV-vis spectroscopy serves as a qualitative means in order to control formulation efficacy. The UV-vis spectra of the dye are shifted on binding to the lipid. The band shift is a function of the binding constant and the fraction of lipid bound and free dye can be estimated by UV-vis spectroscopy.” for “depicted.”

[3] = Remote loading of DOTAP/DOPC liposomes with AF, dialysis and UV-vis; format: physicochemical; details: remote loading: 25 mM DOTAP/DOPC liposomes mixed with equal volume of 5 mM AF
Description: The association of the dye to the liposomes can be performed as well to an already prepared formulation, by simply mixing the dye solution with the liposome suspension. […] The efficacy of the loading can be determined by diafiltration and by UV-vis and fluorescence spectroscopy of the suspension. As an example the results from remote loading of DOTAP/DOPC liposomes with AF (the most weakly binding fluorescein variety) are given. A 25 mM suspension of the pure lipid liposomes was prepared by the standard procedure. Then a 5 mM solution of AF was added to the suspension (equal volumina). Subsequently the suspension was dialyzed in order to remove the free dye. The dye content in the solution was controlled by UV-vis spectroscopy. In FIG. 2, the spectra after mixing, after dialysis, and after addition of triton are shown. The triton was added in order to destroy the liposomes and the release the lipid-bound dye.

[4] = Gel filtration (Microspin S-300 HR) separation of non-associated patent blue from liposomes; format: physicochemical; details: 50 μl loaded on Microspin S-300 HR
Description: Gel filtration is employed to separate the dye (MW<1000 Da) from the colloidal liposome. The free dye is retained in the pores of the column, the liposomes are so large that they elute without retention in the void volume. It is expected that in a liposomal formulation with a lipid concentration of 10 mM approximately 2% of the aqueous phase is entrapped in the liposomes, 98% are not entrapped (Liposomes a practical approach, Ed. R. R. C. New, IRL Press, Oxford 1990). This amount of dye is to be separated from the liposome by gel filtration.
A Microspin™ S-300 HR column (Amersham) was pre-equilibrated as required in the product description and loaded with 50 μl of the neutral liposomal formulation C. The goal was to investigate whether patent blue not associated with the liposomes can be separated from the liposomal fraction as described in the literature (Reynolds, J. A.; Nozaki, Y.; Tanford, C. Gel-exclusion chromatography on S1000 Sephacryl: application to phospholipid vesicles. Anal Biochem 1983, 130 (2), 471-474.) The majority of the dye was retained on the column, a slightly blue solution eluted (liposomes with associated dye; about 2% as estimated by UV spectroscopy). This illustrates that for neutral liposomes we can apply well-established separation protocols to separate un-associated material. […]

A-375 = experiment: MTT cell viability assay, 72 h; format: cell-based; details: Homo sapiens
Description: (§2) A-375 ([…]) and Ea.Hy cells ([…]) is seeded at a constant density (2×10^4/cm^2) in 24-well plates and cultivated over night at conditions of 5-5.5% CO2, 37° C. and ˜90% humidity. At day 1, cell culture medium is replaced by a mixture of fresh medium and a series of 11 consecutive drug dilutions is added to each well (duplicates) to cover a range between 0.1 and 1000 nM final drug concentration. After 72 h, the cell viability in each well is determined by measuring the activity of mitochondrial dehydrogenases (MTT assay). In viable cells the MTT substrate is converted to a blue, cell impermeable dye (Formazan). After 1 h the medium is removed, cells are lysed with isopropanol/0.04% HCl and the amount of the blue Formazan given as optical density at a wavelength of 550 nm (OD550 nm) quantitated in an ELISA reader. The experiment is evaluated using the Sigma Plot analysis software by plotting the mean OD550 nm value against the respective drug concentration. A best fit curve is calculated based on a double-sigmoid assumption algorithm and the IC50 value is determined according to this best fit curve with the following result: […]

Ea.Hy cells = experiment: MTT cell viability assay, 72 h; format: cell-based; details: Homo sapiens
Description: as §2

A-375 Melanoma = experiment: Treatment of A-375 melanoma in NMRI nude mice with Taxol and SuccTXL cationic liposomes; format: in vivo; details: iv, three times a week for three weeks, equitoxic doses; s.c. A-375 tumors; FIG. 9
Description: NMRI-nude mice from Elevage Janvier and housed in isolated ventilated cages under save environmental conditions (SPF facility, 22° C., 30-70% humidity, 12 h light/dark cycle) with food and water ad libitum. Experimental design was reviewed and approved by local government.
Tumor cells (A-375 human melanoma cell line, ATCC Nr.: CRL-1619) were grown as described in the data sheet supplied by ATCC. Tumor cells (5×10^6 in PBS) were inoculated s.c. in the right dorsal flank of mice in a volume of 50 μl on day 0.
Mice were assigned to the experimental groups (8 animals per cage), housed and handled (including monitoring of the body weight gain) at least five days before tumor inoculation (=day −6 to 0). Drug treatment begins after the tumors reached a volume of approximately 100 mm^3. […] Equitoxic doses of the compounds were determined in separate experiments, where toxicity was evaluated based on haematological parameters, body weight and animal clinical observations. […]
Animals were clinically monitored during the whole experiment and for at least one week after treatment was finished. […] The tumor dimensions were measured by calliper and the tumor size was calculated according to the following formula: V=πLW^2/6 (L=greatest length, W=width of perpendicular axis). […] The number of red and white blood cells and platelets were determined using an automated cell counter (Abbott Cell Dyn 3500).

[5] = Liposomal fluoride concentration after dialysis (ion chromatography); format: physicochemical; details: rehydrated with 150 mM sodium fluoride, 3 dialysis steps
Description: The lipids (either 10 mM DOTAP or 10 mM DOPC) are dissolved in chloroform and the solution is transferred into a round bottom flask. The organic solvent is evaporated under reduced pressure forming a clear lipid film on the flask's surface. This film is dried at 40° C. under vacuum (3 to 5 mbar) for about 60 minutes. Then, the film is rehydrated with the appropriate volume of an aqueous 150 mM sodium fluoride solution resulting in a liposomal solution. The next day, the liposomal solution is extruded 5 times through a 200 nm membrane. The size of the liposomes is determined by PCS (Zetasizer 1000 and 3000, Malvern Instruments). The fluoride that is not associated with the liposomes is removed by 3 successive dialysis steps (8 hours, Pierce, Slide-A-Lyzer dialysis cassette; 10000 molecular weight cut off) and the liposomal fluoride concentration is established by ion chromatography. For cationic 10 mM DOTAP liposomes the fluoride concentration is 1.3 mM, whereas the fluoride ion concentration is about 4 times lower for neutral 10 mM DOPC liposomes (0.3 mM fluoride). The far lower fluoride ion concentration of neutral liposomes is explained by the attractive forces of cationic lipids interacting with the negatively charged halide anion.

[6] = Chemical stability of succinyl paclitaxel in aqueous solution (HPLC, paclitaxel release); format: physicochemical; details: for paclitaxel release: 4° C., 0.1 mM Tris-buffered

Compound: Nc1ccc(-c2c3ccc(=O)cc-3oc3cc(O)ccc23)c(C(=O)O)c1 [AF, aminofluorescein]
- dye retained in the liposome suspension after diafiltration ([1]; 15 mM DOTAP/DOPC 1:1, 5 mM dye in the aqueous phase): ca. 50%
- Conc. marker after diafiltration ([1]; DOTAP/DOPC 50/50 liposomes, conc. before diafiltration […]): 800 µg/mL
- λ max ([2]; DOTAP/DOPC 50/50 liposomes): 497.6 nm
- dye remained bound to the liposomes after dialysis [3]: ca. 50%

Compound: CCN(CC)c1ccc(C(=C2C=CC(=[N+](CC)CC)C=C2)c2cc(O)c(S(=O)(=O)O)cc2S(=O)(=O)O)cc1 [PB, Patent blue]
- separation of dye from liposomes on gel filtration column (in words) [4]: trapped in the pores of the column material

Compound: carboxy-fluorescein [CF]
- dye retained in the liposome suspension after diafiltration ([1]; 15 mM DOTAP/DOPC 1:1, 0.5 mM of CF): ~100%
- Conc. marker after diafiltration ([1]; DOPG/DOPC 95/5 (anionic) liposomes, conc. before diafiltration 1.9 mg/ml): 120 µg/mL
- Conc. marker after diafiltration ([1]; DOTAP/DOPC 50/50 liposomes, conc. before diafiltration 0.19 mg/ml): 190 µg/mL
- λ max ([2]; DOPG/DOPC 95/5 liposomes): 492.6 nm
- λ max ([2]; DOTAP/DOPC 50/50 liposomes): 506 nm

Further lines, with some results ahead:

- IC50 (A-375): 2 nM
Compound: CC(=O)O[C@H]1C(=O)[C@@]2(C)[C@H]([C@H](OC(=O)c3ccccc3)[C@]3(O)C[C@H](OC(=O)[C@H](O)[C@@H](NC(=O)c4ccccc4)c4ccccc4)C(C)=C1C3(C)C)[C@]1(OC(C)=O)CO[C@@H]1C[C@@H]2O [Taxol ®, Paclitaxel]
- IC50 (Ea.Hy cells): 3 nM
- tumor growth rate (in words) (A-375 Melanoma): reduced the tumor growth only to a limited extent

- liposomal fluoride concentration ([5]; cationic 10 mM DOTAP liposomes): 1.3 mM
- liposomal fluoride concentration ([5]; neutral 10 mM DOPC liposomes): 0.3 mM
Compound: [F-].[Na+] [fluoride, sodium fluoride]

- paclitaxel release ([6]; pH 5, after 9 days): 4%
- paclitaxel release ([6]; pH 7, after 9 days): 4%
- paclitaxel release ([6]; pH 9, after 9 days): 70%
- paclitaxel release (in words) ([6]; 40° C., all pH values (5, 7, 9), within 56 hours): intensive release of paclitaxel
- IC50 (A-375): 10 nM
Compound: CC(=O)O[C@H]1C(=O)[C@@]2(C)C([C@H](OC(=O)c3ccccc3)[C@]3(O)C[C@H](OC(=O)C(OC(=O)CCC(=O)O)C(NC(=O)c4ccccc4)c4ccccc4)C(C)=C1C3(C)C)[C@]1(OC(C)=O)CO[C@@H]1C[C@@H]2O (stereo partly drawn) [succinyl paclitaxel]
- IC50 (Ea.Hy cells): 17 nM
